# Measurements as given in US20250082624A1, “METHODS OF TREATING COGNITIVE IMPAIRMENT” (NeuroTherapia, Inc., priority 2023, published 2025).
# Test: Two-compartment PK model of NTRX-07 plasma data (fit and dose predictions)
# Design: species or system human
# Conditions: compartmental PK model; for AUC24 h accumulation / Cmax accumulation: over 7 days
# Description: Predictive compartmental PK analysis was utilized during dose escalation to predict PK outcomes at higher dose levels based on data from lower ones.
# FIGS. 22A and 22B show the mathematical model with a simultaneous fit to data from all four cohorts (excluding fed subject data).
# Compartmental analysis was performed using a two-compartment model with extravascular administration. Modeling was performed using a sophisticated MS Excel workbook developed by PharmaDirections.
# FIGS. 24A-B show the mathematical model (heavy blue line) fit to the Cohort A data. The model will be further refined as data from additional cohorts become available. In particular, the terminal slope may change some, as the current data set is inadequate to define it. The model was built based on geometric mean data, but timepoint data were not used in cases where plasma concentrations were below the limit of quantitation for four or more of the six subjects.
# Note that the model estimates are somewhat higher than those obtained from non-compartmental analysis since they consider the entire dosing interval as opposed to only the time points for which data are available.
# These predictions are based on an assumption of linear PK across the specified dose range, and parameters could be underestimated if a saturable process limits bioavailability or is involved in drug clearance. Current data are insufficient to determine whether any saturable processes are involved in NTRX-007 uptake or clearance.
# Compartmental analysis was performed based on a two-compartment model with extravascular administration. Modeling was performed using a sophisticated MS Excel workbook developed by PharmaDirections. Geometric mean data from Cohorts A and B were used to determine weighted least squares best fits for the PK parameters.
# FIGS. 26A-26B show the mathematical model (heavy blue line) fit to the Cohort B data. The model was built based on geometric mean data, but timepoint data were not used in cases where plasma concentrations were below the limit of quantitation for four or more of the seven subjects.
# Compartmental analysis was performed based on a two-compartment model with extravascular administration. Modeling was performed using a sophisticated MS Excel workbook developed by PharmaDirections. Geometric mean data from Cohorts A, B, and C were used to determine weighted least squares best fits for the PK parameters.
# The model predicts somewhat higher exposure for b.i.d. dosing.
# Compartmental analysis was performed based on a two-compartment model with extravascular administration. Modeling was performed using a sophisticated MS Excel workbook developed by PharmaDirections. Geometric mean data from Cohorts A, B, C, and D were used to determine weighted least squares best fits for the PK parameters.
smiles,measurement,setting,value
"CC1(Cc2ccccc2)COc2cc(C(=O)N3CCCCC3)ccc21 (stereo not shown) [NTRX-07, 3-benzyl-3-methyl-2,3-dihydrobenzofuran-6-carboxylic acid-piperidine amide]",AUC24 h,"40 mg SDD QD, Day 1",96 ng·h/mL
same,Cmax,"40 mg SDD QD, Day 1",43.9 ng/mL
same,Cmin,"40 mg SDD QD, Day 1",0.0 ng/mL
same,Tmax,"40 mg SDD QD, Day 1",4.8 min
same,AUC24 h,"40 mg SDD QD, Day 2",100 ng·h/mL
same,Cmax,"40 mg SDD QD, Day 2",44.3 ng/mL
same,Cmin,"40 mg SDD QD, Day 2",0.4 ng/mL
same,Tmax,"40 mg SDD QD, Day 2",4.8 min
same,AUC24 h,"40 mg SDD QD, Day 3",101 ng·h/mL
same,Cmax,"40 mg SDD QD, Day 3",44.4 ng/mL
same,Cmin,"40 mg SDD QD, Day 3",0.5 ng/mL
same,Tmax,"40 mg SDD QD, Day 3",4.8 min
same,AUC24 h,"40 mg SDD QD, Day 4",101 ng·h/mL
same,Cmax,"40 mg SDD QD, Day 4",44.4 ng/mL
same,Cmin,"40 mg SDD QD, Day 4",0.5 ng/mL
same,Tmax,"40 mg SDD QD, Day 4",4.8 min
same,AUC24 h,"40 mg SDD QD, Day 5",101 ng·h/mL
same,Cmax,"40 mg SDD QD, Day 5",44.4 ng/mL
same,Cmin,"40 mg SDD QD, Day 5",0.5 ng/mL
same,Tmax,"40 mg SDD QD, Day 5",4.8 min
same,AUC24 h,"40 mg SDD QD, Day 6",101 ng·h/mL
same,Cmax,"40 mg SDD QD, Day 6",44.4 ng/mL
same,Cmin,"40 mg SDD QD, Day 6",0.5 ng/mL
same,Tmax,"40 mg SDD QD, Day 6",4.8 min
same,AUC24 h,"40 mg SDD QD, Day 7",101 ng·h/mL
same,Cmax,"40 mg SDD QD, Day 7",44.4 ng/mL
same,Cmin,"40 mg SDD QD, Day 7",0.5 ng/mL
same,Tmax,"40 mg SDD QD, Day 7",4.8 min
same,AUC24 h accumulation,40 mg SDD QD,104%
same,Cmax accumulation,40 mg SDD QD,101%
same,AUC24 h,"120 mg SDD QD, Day 1",210 ng·h/mL
same,Cmax,"120 mg SDD QD, Day 1",74.6 ng/mL
same,Tmax,"120 mg SDD QD, Day 1",37.8 min
same,AUC24 h,"120 mg SDD QD, Day 2",227 ng·h/mL
same,Cmax,"120 mg SDD QD, Day 2",76.1 ng/mL
same,Cmin,"120 mg SDD QD, Day 2",1.5 ng/mL
same,Tmax,"120 mg SDD QD, Day 2",37.8 min
same,AUC24 h,"120 mg SDD QD, Day 3",230 ng·h/mL
same,Cmax,"120 mg SDD QD, Day 3",76.3 ng/mL
same,Cmin,"120 mg SDD QD, Day 3",1.8 ng/mL
same,Tmax,"120 mg SDD QD, Day 3",37.8 min
same,AUC24 h,"120 mg SDD QD, Day 4",231 ng·h/mL
same,Cmax,"120 mg SDD QD, Day 4",76.4 ng/mL
same,Cmin,"120 mg SDD QD, Day 4",1.8 ng/mL
same,Tmax,"120 mg SDD QD, Day 4",37.8 min
same,AUC24 h,"120 mg SDD QD, Day 5",231 ng·h/mL
same,Cmax,"120 mg SDD QD, Day 5",76.4 ng/mL
same,Cmin,"120 mg SDD QD, Day 5",1.8 ng/mL
same,Tmax,"120 mg SDD QD, Day 5",37.8 min
same,AUC24 h,"120 mg SDD QD, Day 6",231 ng·h/mL
same,Cmax,"120 mg SDD QD, Day 6",76.4 ng/mL
same,Cmin,"120 mg SDD QD, Day 6",1.8 ng/mL
same,Tmax,"120 mg SDD QD, Day 6",37.8 min
same,AUC24 h,"120 mg SDD QD, Day 7",231 ng·h/mL
same,Cmax,"120 mg SDD QD, Day 7",76.4 ng/mL
same,Cmin,"120 mg SDD QD, Day 7",1.8 ng/mL
same,Tmax,"120 mg SDD QD, Day 7",37.8 min
same,AUC24 h accumulation,120 mg SDD QD,110%
same,Cmax accumulation,120 mg SDD QD,102%
same,AUC24 h,"360 mg SDD QD, Day 1",559 ng·h/mL
same,Cmax,"360 mg SDD QD, Day 1",162.0 ng/mL
same,Tmax,"360 mg SDD QD, Day 1",47.4 min
same,AUC24 h,"360 mg SDD QD, Day 2",616 ng·h/mL
same,Cmax,"360 mg SDD QD, Day 2",166.4 ng/mL
same,Cmin,"360 mg SDD QD, Day 2",4.7 ng/mL
same,Tmax,"360 mg SDD QD, Day 2",47.4 min
same,AUC24 h,"360 mg SDD QD, Day 3",628 ng·h/mL
same,Cmax,"360 mg SDD QD, Day 3",167.4 ng/mL
same,Cmin,"360 mg SDD QD, Day 3",5.4 ng/mL
same,Tmax,"360 mg SDD QD, Day 3",47.4 min
same,AUC24 h,"360 mg SDD QD, Day 4",631 ng·h/mL
same,Cmax,"360 mg SDD QD, Day 4",167.6 ng/mL
same,Cmin,"360 mg SDD QD, Day 4",5.7 ng/mL
same,Tmax,"360 mg SDD QD, Day 4",47.4 min
same,AUC24 h,"360 mg SDD QD, Day 5",631 ng·h/mL
same,Cmax,"360 mg SDD QD, Day 5",167.6 ng/mL
same,Cmin,"360 mg SDD QD, Day 5",5.7 ng/mL
same,Tmax,"360 mg SDD QD, Day 5",47.4 min
same,AUC24 h,"360 mg SDD QD, Day 6",631 ng·h/mL
same,Cmax,"360 mg SDD QD, Day 6",167.6 ng/mL
same,Cmin,"360 mg SDD QD, Day 6",5.7 ng/mL
same,Tmax,"360 mg SDD QD, Day 6",47.4 min
same,AUC24 h,"360 mg SDD QD, Day 7",631 ng·h/mL
same,Cmax,"360 mg SDD QD, Day 7",167.6 ng/mL
same,Cmin,"360 mg SDD QD, Day 7",5.7 ng/mL
same,Tmax,"360 mg SDD QD, Day 7",47.4 min
same,AUC24 h accumulation,360 mg SDD QD,113%
same,Cmax accumulation,360 mg SDD QD,103%
